Test results reported in patent US20120135094A1, “OREGANO AND MINT ANTI-INFLAMMATORY COMPOSITIONS AND METHODS” (RUTGERS, THE STATE UNIVERSITY OF NEW JERSEY, priority 2009, published 2012).

Key:
Type in all cases: cell-based, murine
[1] = system: COX-2 protein in RAW 264.7 cells; assay: Western Blotting of LPS-induced COX-2 protein level; conditions: test compounds 10 and 20 μg/mL, 24 h
Description: (§1) FIG. 5 illustrates effects of rosmarinic acid (RosA), oleanolic acid (OA), ursolic acid (UA) and indomethacin on LPS-induced iNOS and COX-2 protein levels in RAW 264.7 cells. The cells were treated with test compounds (10 and 20 μg/mL) for 24 h. Equal amounts of total proteins (50 μg) were subjected to 10% SDS-PAGE. The expression of iNOS, COX-2 and β-actin protein was detected by Western Blot using specific antibodies. Quantification of iNOS and COX-2 protein expression was performed by densitometric analysis of the immunoblot. The values below the figure represent the relative intensity in protein expression of the bands normalized to β-actin.
(§2) RAW 264.7 cells, derived from murine macrophages, were procured from the American Type Culture Collection (Rockville, Md.). The cells were cultured in RPMI-1640 (without phenol red) supplemented with 10% endotoxin-free, heat-inactivated fetal calf serum (GIBCO, Grand Island, N.Y.), 100 units/mL penicillin, and […] streptomycin. When the RAW 264.7 cells reached a density of 2-3×10^6 cells/mL, they were activated by incubation in the medium containing E. coli LPS (lipopolysaccharide, 100 ng/mL). Various concentrations of test compounds dissolved in DMSO (dimethylsulfoxide) were combined together with LPS. The cells were treated with 0.05% DMSO as vehicle control.
(§3) The total proteins, isolated from cells after treatment with test compounds for 24 h, were extracted via addition of 200 μL of gold lysis buffer (50 mM Tris-HCl, pH 7.4; 1 mM NaF; 150 mM NaCl; 1 mM EGTA; 1 mM phenylmethanesulfonyl fluoride; 1% NP-40; and 10 μg/mL leupeptin) to the cell pellets on ice for 30 min, followed by centrifugation for 30 min at 4° C. The cytosolic fraction (supernatant) proteins were measured by Bio-Rad Protein Assay (Bio-Rad Laboratories, Munich, Germany). The samples (50 μg of proteins) were mixed with 5-fold sample buffer containing 0.3 M Tris-HCl (pH 6.8), 25% 2-mercaptoethanol, 12% sodium dodecyl sulfate (SDS), 25 mM EDTA, 20% glycerol, and 0.1% bromophenol blue. […]

[2] = system: iNOS protein in RAW 264.7 cells; assay: Western Blotting of LPS-induced iNOS protein level; conditions: test compounds 10 and 20 μg/mL, 24 h
Description: as §1, §2, §3

[3] = system: LPS-induced nitrite production in RAW 264.7 macrophages; assay: LPS-induced nitrite production assay (Griess reaction); conditions: concentration range of 10-100 μg/mL, dose-dependently; LPS 100 ng/mL, 24 h
Description: FIG. 4 illustrates anti-inflammatory effect of rosmarinic acid (RosA), ursolic acid (UA) and oleanolic acid (OA) on LPS-induced nitrite production in RAW 264.7 macrophages. The cells were treated with 100 ng/mL of LPS only or with different concentrations of test compounds for 24 h. At the end of incubation time, 100 μL of the culture medium was collected for nitrite assay. The values are expressed as means±standard error of triplicate tests.
as §2, with “Various concentrations of test compounds dissolved in DMSO (dimethylsulfoxide) were combined together with LPS. The cells were treated with 0.05% DMSO as vehicle control.” left out
The RAW 264.7 cells were treated with various compounds and LPS or LPS only. The supernatants were harvested and the amount of nitrite, an indicator of NO synthesis, was measured using the Griess reaction. […] After incubation at room temperature for 10 min, absorbance at 570 nm was measured with the ELISA reader (Thermo Labsystems, Multiskan Ascent, Finland).

## CC1(C)CC[C@]2(C(=O)O)CC[C@]3(C)C(=CC[C@@H]4[C@@]5(C)CC[C@H](O)C(C)(C)[C@@H]5CC[C@]43C)[C@@H]2C1 [oleanolic acid]
[1]
  COX-2 protein expression: suppressed COX-2 protein expression
[2]
  iNOS protein expression: reduced expression of iNOS protein

## O=C(/C=C/c1ccc(O)c(O)c1)O[C@H](Cc1ccc(O)c(O)c1)C(=O)O [rosmarinic acid]
[1]
  COX-2 protein expression: suppressed COX-2 protein expression
[2]
  iNOS protein expression: reduced expression of iNOS protein
[3]
  suppression of NO generation: 19-100%

## C[C@H]1[C@H](C)CC[C@]2(C(=O)O)CC[C@]3(C)C(=CC[C@@H]4[C@@]5(C)CC[C@H](O)C(C)(C)[C@@H]5CC[C@]43C)[C@H]12 [ursolic acid]
[1]
  COX-2 protein expression: suppressed COX-2 protein expression
[2]
  iNOS protein expression: reduced expression of iNOS protein
